Data published in US20260022142A1, “MACROCYCLIC IMMUNOMODULATORS” (Bristol-Myers Squibb Company, priority 2022, published 2026).
Bridge positions count the residues as written; N and C are the ends. Square brackets hold non-standard residues; d marks the D form. Peptide text beside a SMILES is read from it. * marks the point of attachment. ξ: configuration not given here. Phe(4-COOH) = N[C@@H](Cc1ccc(C(=O)O)cc1)C(=O)O; Bip = N[C@@H](Cc1ccc(-c2ccccc2)cc1)C(=O)O; hArg = N=C(N)NCCCC[C@H](N)C(=O)O; 4Pal = N[C@@H](Cc1ccncc1)C(=O)O; 3Thi = N[C@@H](Cc1ccsc1)C(=O)O; Cha = N[C@@H](CC1CCCCC1)C(=O)O; Cit = NC(=O)NCCC[C@H](N)C(=O)O; Thr(3ξ) = CC(O)[C@H](N)C(=O)O; Carboxymethyl = O=C(O)C*; Orn = NCCC[C@H](N)C(=O)O; Aun = NCCCCCCCCCCC(=O)O; Dab = NCC[C@H](N)C(=O)O; Dap = NC[C@H](N)C(=O)O; AEEA = NCCOCCOCC(=O)O

Target: T1, PD-1/PD-L1 interaction (PE-labeled human PD-L1-Ig binding to Jurkat cell line over-expressing human PD-1) (Homo sapiens, UniProt Q15116)
T1 construct: expressed in transfected cells; host or cells: Jurkat
T1 sequence (Q15116 25-288): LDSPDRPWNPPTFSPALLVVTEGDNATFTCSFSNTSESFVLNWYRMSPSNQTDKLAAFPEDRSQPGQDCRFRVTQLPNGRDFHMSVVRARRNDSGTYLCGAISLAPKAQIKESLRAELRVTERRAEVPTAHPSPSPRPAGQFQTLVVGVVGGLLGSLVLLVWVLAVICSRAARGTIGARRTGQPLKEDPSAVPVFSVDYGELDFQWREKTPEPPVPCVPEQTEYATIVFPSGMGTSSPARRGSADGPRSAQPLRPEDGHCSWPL
Assay: Jurkat-PD-1 Cell Binding High-Content Screening Assay (CBA)
Type: cell-based
Conditions: Jurkat cell line over-expressing human PD-1; PE-labeled PD-L1-Ig 20 nM final; read-out: Jurkat hPD1-PDL1 IC50
Procedure, shortened: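 Human PD-L1-Ig carrying a covalent PE label on its Ig tag serves as the probe, applied at 20 nM final to compound-treated (2 h, 37° C) Jurkat-hPD-1 cells in medium with 10% fetal calf serum. After one hour, fixation and nuclear staining precede high-content image analysis.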

Structure (SMILES)	IC50 [nM]
CC(C)C[C@H]1NC(=O)[C@H](CCCN)NC(=O)[C@H](C(C)C)NC(=O)[C@H](Cc2ccc(-c3ccccc3)cc2)NC(=O)[C@H](C(C)C)NC(=O)[C@H](Cc2c[nH]c3ccccc23)NC(=O)[C@H](CC(=O)O)NC(=O)[C@H](Cc2ccc(OCC(=O)O)cc2)NC(=O)[C@H](CCCCNC(=N)N)NC(=O)CSC[C@@H](C(=O)NCC(=O)NCCOCCOCC(=O)N[C@@H](CCCN)C(=O)NCCCCCCCCCCC(=O)O)NC(=O)[C@H](CCN)NC(=O)[C@H](C(C)C)NC(=O)[C@H](CC2CCCCC2)NC(=O)[C@H](CC(N)=O)NC1=O [Compound 3202] ({CH2CO}-[hArg]Y(Carboxymethyl)DWV[Bip]V[Orn][dL]N[Cha]V[Dab]CG[AEEA][Orn][Aun]-OH; thioether N-14)	19.3
CC(C)C[C@H]1NC(=O)[C@H](CCCN)NC(=O)[C@H](C(C)C)NC(=O)[C@H](Cc2ccc(-c3ccccc3)cc2)NC(=O)[C@H](C(C)C)NC(=O)[C@H](Cc2c[nH]c3ccccc23)NC(=O)[C@H](CC(=O)O)NC(=O)[C@H](Cc2ccc(OCC(=O)O)cc2)NC(=O)[C@H](CCCCNC(=N)N)NC(=O)CSC[C@@H](C(=O)NCC(=O)NCCOCCOCC(=O)N[C@@H](CCCN)C(=O)NCCCCCCCCCCC(=O)O)NC(=O)[C@H](CCCN)NC(=O)[C@H](C(C)C)NC(=O)[C@H](CC2CCCCC2)NC(=O)[C@H](CC(N)=O)NC1=O [Compound 3203] ({CH2CO}-[hArg]Y(Carboxymethyl)DWV[Bip]V[Orn][dL]N[Cha]V[Orn]CG[AEEA][Orn][Aun]-OH; thioether N-14)	28.4
CC(C)C[C@H]1NC(=O)[C@H](CCCN)NC(=O)[C@H](C(C)C)NC(=O)[C@H](Cc2ccc(-c3ccccc3)cc2)NC(=O)[C@H](C(C)C)NC(=O)[C@H](Cc2c[nH]c3ccccc23)NC(=O)[C@H](CC(=O)O)NC(=O)[C@H](Cc2ccc(OCC(=O)O)cc2)NC(=O)[C@H](CCCCNC(=N)N)NC(=O)CSC[C@@H](C(=O)NCC(=O)NCCOCCOCC(=O)N[C@@H](CCCN)C(=O)NCCCCCCCCCCC(=O)O)NC(=O)[C@H](CCCCN)NC(=O)[C@H](C(C)C)NC(=O)[C@H](CC2CCCCC2)NC(=O)[C@H](CC(N)=O)NC1=O [Compound 3204] ({CH2CO}-[hArg]Y(Carboxymethyl)DWV[Bip]V[Orn][dL]N[Cha]VKCG[AEEA][Orn][Aun]-OH; thioether N-14)	12.7
CC(C)C[C@H]1NC(=O)[C@H](CCCN)NC(=O)[C@H](C(C)C)NC(=O)[C@H](Cc2ccc(-c3ccccc3)cc2)NC(=O)[C@H](C(C)C)NC(=O)[C@H](Cc2c[nH]c3ccccc23)NC(=O)[C@H](CC(=O)O)NC(=O)[C@H](Cc2ccc(OCC(=O)O)cc2)NC(=O)[C@H](Cc2ccc(OCC(=O)O)cc2)NC(=O)CSC[C@@H](C(=O)NCC(=O)NCCOCCOCC(=O)N[C@@H](CCCN)C(=O)NCCCCCCCCCCC(=O)O)NC(=O)[C@H](CCCN)NC(=O)[C@H](C(C)C)NC(=O)[C@H](CC2CCCCC2)NC(=O)[C@H](CC(N)=O)NC1=O [Compound 3205] ({CH2CO}-Y(Carboxymethyl)Y(Carboxymethyl)DWV[Bip]V[Orn][dL]N[Cha]V[Orn]CG[AEEA][Orn][Aun]-OH; thioether N-14)	12.4
CC(C)C[C@H]1NC(=O)[C@H](CCCN)NC(=O)[C@H](C(C)C)NC(=O)[C@H](Cc2ccc(-c3ccccc3)cc2)NC(=O)[C@H](C(C)C)NC(=O)[C@H](Cc2c[nH]c3ccccc23)NC(=O)[C@H](CC(=O)O)NC(=O)[C@H](Cc2ccc(C(=O)O)cc2)NC(=O)[C@H](Cc2ccc(OCC(=O)O)cc2)NC(=O)CSC[C@@H](C(=O)NCC(=O)NCCOCCOCC(=O)N[C@@H](CCCN)C(=O)NCCCCCCCCCCC(=O)O)NC(=O)[C@H](CCCN)NC(=O)[C@H](C(C)C)NC(=O)[C@H](CC2CCCCC2)NC(=O)[C@H](CC(N)=O)NC1=O [Compound 3206] ({CH2CO}-Y(Carboxymethyl)[Phe(4-COOH)]DWV[Bip]V[Orn][dL]N[Cha]V[Orn]CG[AEEA][Orn][Aun]-OH; thioether N-14)	24.5
CC(C)C[C@H]1NC(=O)[C@H](CCCN)NC(=O)[C@H](C(C)C)NC(=O)[C@H](Cc2ccc(-c3ccccc3)cc2)NC(=O)[C@H](C(C)C)NC(=O)[C@H](Cc2c[nH]c3ccccc23)NC(=O)[C@H](CC(=O)O)NC(=O)[C@H](Cc2ccc(OCC(=O)O)cc2)NC(=O)[C@H](Cc2ccncc2)NC(=O)CSC[C@@H](C(=O)NCC(=O)NCCOCCOCC(=O)N[C@@H](CCCN)C(=O)NCCCCCCCCCCC(=O)O)NC(=O)[C@H](CCCN)NC(=O)[C@H](C(C)C)NC(=O)[C@H](CC2CCCCC2)NC(=O)[C@H](CC(N)=O)NC1=O [Compound 3207] ({CH2CO}-[4Pal]Y(Carboxymethyl)DWV[Bip]V[Orn][dL]N[Cha]V[Orn]CG[AEEA][Orn][Aun]-OH; thioether N-14)	17.4
CC(C)C[C@H]1NC(=O)[C@H](CCCNC(N)=O)NC(=O)[C@H](C(C)C)NC(=O)[C@H](Cc2ccc(-c3ccccc3)cc2)NC(=O)[C@H](C(C)C)NC(=O)[C@H](Cc2c[nH]c3ccccc23)NC(=O)[C@H](CC(=O)O)NC(=O)[C@H](Cc2ccc(OCC(=O)O)cc2)NC(=O)[C@H](Cc2ccsc2)NC(=O)CSC[C@@H](C(=O)NCCOCCOCC(=O)N[C@@H](CCCN)C(=O)NCCCCCCCCCCC(=O)O)NC(=O)[C@H](C(C)O)NC(=O)[C@H](C(C)C)NC(=O)[C@H](CC2CCCCC2)NC(=O)[C@H](CCN)NC1=O (stereo partly drawn) [Compound 3208] ({CH2CO}-[3Thi]Y(Carboxymethyl)DWV[Bip]V[Cit][dL][Dab][Cha]V[Thr(3ξ)]C[AEEA][Orn][Aun]-OH; thioether N-14)	603
CC(C)C[C@H]1NC(=O)[C@H](CN)NC(=O)[C@H](C(C)C)NC(=O)[C@H](Cc2ccc(-c3ccccc3)cc2)NC(=O)[C@H](C(C)C)NC(=O)[C@H](Cc2c[nH]c3ccccc23)NC(=O)[C@H](CC(=O)O)NC(=O)[C@H](Cc2ccc(OCC(=O)O)cc2)NC(=O)[C@H](Cc2ccsc2)NC(=O)CSC[C@@H](C(=O)NCCOCCOCC(=O)N[C@@H](CCCN)C(=O)NCCCCCCCCCCC(=O)O)NC(=O)[C@H](C(C)O)NC(=O)[C@H](C(C)C)NC(=O)[C@H](CC2CCCCC2)NC(=O)[C@H](CCN)NC1=O (stereo partly drawn) [Compound 3209] ({CH2CO}-[3Thi]Y(Carboxymethyl)DWV[Bip]V[Dap][dL][Dab][Cha]V[Thr(3ξ)]C[AEEA][Orn][Aun]-OH; thioether N-14)	17.1

Compounds with a lower IC50, results first:

IC50 [nM]	Structure (SMILES)
11.6	CC(C)C[C@H]1NC(=O)[C@H](CCCN)NC(=O)[C@H](C(C)C)NC(=O)[C@H](Cc2ccc(-c3ccccc3)cc2)NC(=O)[C@H](C(C)C)NC(=O)[C@H](Cc2c[nH]c3ccccc23)NC(=O)[C@H](CC(=O)O)NC(=O)[C@H](Cc2ccc(OCC(=O)O)cc2)NC(=O)[C@H](CCCCNC(=N)N)NC(=O)CSC[C@@H](C(=O)NCC(=O)NCCOCCOCC(=O)N[C@@H](CCCN)C(=O)NCCCCCCCCCCC(=O)O)NC(=O)[C@H](CN)NC(=O)[C@H](C(C)C)NC(=O)[C@H](CC2CCCCC2)NC(=O)[C@H](CCN)NC1=O [Compound 3196] ({CH2CO}-[hArg]Y(Carboxymethyl)DWV[Bip]V[Orn][dL][Dab][Cha]V[Dap]CG[AEEA][Orn][Aun]-OH; thioether N-14)
7.7	CC(C)C[C@H]1NC(=O)[C@H](CCCN)NC(=O)[C@H](C(C)C)NC(=O)[C@H](Cc2ccc(-c3ccccc3)cc2)NC(=O)[C@H](C(C)C)NC(=O)[C@H](Cc2c[nH]c3ccccc23)NC(=O)[C@H](CC(=O)O)NC(=O)[C@H](Cc2ccc(OCC(=O)O)cc2)NC(=O)[C@H](CCCCNC(=N)N)NC(=O)CSC[C@@H](C(=O)NCC(=O)NCCOCCOCC(=O)N[C@@H](CCCN)C(=O)NCCCCCCCCCCC(=O)O)NC(=O)[C@H](CCN)NC(=O)[C@H](C(C)C)NC(=O)[C@H](CC2CCCCC2)NC(=O)[C@H](CCN)NC1=O [Compound 3197] ({CH2CO}-[hArg]Y(Carboxymethyl)DWV[Bip]V[Orn][dL][Dab][Cha]V[Dab]CG[AEEA][Orn][Aun]-OH; thioether N-14)
4	CC(C)C[C@H]1NC(=O)[C@H](CCCN)NC(=O)[C@H](C(C)C)NC(=O)[C@H](Cc2ccc(-c3ccccc3)cc2)NC(=O)[C@H](C(C)C)NC(=O)[C@H](Cc2c[nH]c3ccccc23)NC(=O)[C@H](CC(=O)O)NC(=O)[C@H](Cc2ccc(OCC(=O)O)cc2)NC(=O)[C@H](CCCCNC(=N)N)NC(=O)CSC[C@@H](C(=O)NCC(=O)NCCOCCOCC(=O)N[C@@H](CCCN)C(=O)NCCCCCCCCCCC(=O)O)NC(=O)[C@H](CCCN)NC(=O)[C@H](C(C)C)NC(=O)[C@H](CC2CCCCC2)NC(=O)[C@H](CCN)NC1=O [Compound 3198] ({CH2CO}-[hArg]Y(Carboxymethyl)DWV[Bip]V[Orn][dL][Dab][Cha]V[Orn]CG[AEEA][Orn][Aun]-OH; thioether N-14)
5.5	CC(C)C[C@H]1NC(=O)[C@H](CCCN)NC(=O)[C@H](C(C)C)NC(=O)[C@H](Cc2ccc(-c3ccccc3)cc2)NC(=O)[C@H](C(C)C)NC(=O)[C@H](Cc2c[nH]c3ccccc23)NC(=O)[C@H](CC(=O)O)NC(=O)[C@H](Cc2ccc(OCC(=O)O)cc2)NC(=O)[C@H](CCCCNC(=N)N)NC(=O)CSC[C@@H](C(=O)NCC(=O)NCCOCCOCC(=O)N[C@@H](CCCN)C(=O)NCCCCCCCCCCC(=O)O)NC(=O)[C@H](CCCCN)NC(=O)[C@H](C(C)C)NC(=O)[C@H](CC2CCCCC2)NC(=O)[C@H](CCN)NC1=O [Compound 3199] ({CH2CO}-[hArg]Y(Carboxymethyl)DWV[Bip]V[Orn][dL][Dab][Cha]VKCG[AEEA][Orn][Aun]-OH; thioether N-14)
7.3	CC(C)C[C@H]1NC(=O)[C@H](CCCN)NC(=O)[C@H](C(C)C)NC(=O)[C@H](Cc2ccc(-c3ccccc3)cc2)NC(=O)[C@H](C(C)C)NC(=O)[C@H](Cc2c[nH]c3ccccc23)NC(=O)[C@H](CC(=O)O)NC(=O)[C@H](Cc2c[nH]cn2)NC(=O)[C@H](CCCCNC(=N)N)NC(=O)CSC[C@@H](C(=O)NCC(=O)NCCOCCOCC(=O)N[C@@H](CCCN)C(=O)NCCCCCCCCCCC(=O)O)NC(=O)[C@H](CO)NC(=O)[C@H](C(C)C)NC(=O)[C@H](CC2CCCCC2)NC(=O)[C@H](CCN)NC1=O [Compound 3200] ({CH2CO}-[hArg]HDWV[Bip]V[Orn][dL][Dab][Cha]VSCG[AEEA][Orn][Aun]-OH; thioether N-14)
